Where a name gives a salt, the structure may show the parent alone.

The target in this experiment is human TRPV1 (Homo sapiens (Human), UniProt Q8NER1). The following applies: read-out: IC50 (μM), antagonist effect against human TRPV1; CHO cells expressing human TrpV1; stimulated with 2.5 μM NADA (EC80); mean of at least three independent experiments.
human TRPV1, sequence (Q8NER1 whole entry): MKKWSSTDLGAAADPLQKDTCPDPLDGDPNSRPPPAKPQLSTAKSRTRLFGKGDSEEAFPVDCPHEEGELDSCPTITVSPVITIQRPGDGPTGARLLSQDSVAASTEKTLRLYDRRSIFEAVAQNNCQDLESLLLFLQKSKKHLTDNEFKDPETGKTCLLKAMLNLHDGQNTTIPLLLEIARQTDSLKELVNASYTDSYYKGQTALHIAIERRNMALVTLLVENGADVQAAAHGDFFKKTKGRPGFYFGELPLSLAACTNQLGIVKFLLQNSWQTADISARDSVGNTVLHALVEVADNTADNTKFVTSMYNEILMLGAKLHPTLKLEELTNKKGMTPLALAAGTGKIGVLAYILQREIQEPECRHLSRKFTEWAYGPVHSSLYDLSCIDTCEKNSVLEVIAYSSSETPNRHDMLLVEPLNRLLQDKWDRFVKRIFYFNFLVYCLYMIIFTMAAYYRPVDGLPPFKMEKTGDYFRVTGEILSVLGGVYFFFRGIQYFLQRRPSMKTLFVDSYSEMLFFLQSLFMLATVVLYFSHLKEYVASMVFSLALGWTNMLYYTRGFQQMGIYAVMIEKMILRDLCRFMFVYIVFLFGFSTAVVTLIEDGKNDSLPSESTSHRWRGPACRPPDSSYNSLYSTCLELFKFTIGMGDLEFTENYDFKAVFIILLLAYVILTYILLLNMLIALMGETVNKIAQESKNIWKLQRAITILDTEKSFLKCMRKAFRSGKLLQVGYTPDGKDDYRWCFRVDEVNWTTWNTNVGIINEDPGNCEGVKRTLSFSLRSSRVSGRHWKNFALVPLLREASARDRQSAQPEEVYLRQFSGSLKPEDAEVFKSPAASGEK
With `Fc1ccc2cnccc2c1CN[C@H]1C[C@H](Oc2ccc3ccccc3c2)C1` [Example 31, (1r,3r)-N-((6-fluoroisoquinolin-5-yl)methyl)-3-(naphthalen-2-yloxy)cyclobutan-1-amine, HCl], the IC50 (commonly the concentration needed to halve the response being measured) amounted to 0.264 µM. For the molecule `Fc1ccc2ccc(O[C@H]3C[C@H](NCc4c(F)ccc5cnccc45)C3)cc2c1` [Example 32, (1r,3r)-N-((6-fluoroisoquinolin-5-yl)methyl)-3-((7-fluoronaphthalen-2-yl)oxy)cyclobutan-1-amine, HCl], the IC50 stood at 0.102 µM.

For the molecule `Fc1ccc2cnccc2c1CN[C@H]1C[C@H](Oc2cccc(S(F)(F)(F)(F)F)c2)C1` [Example 33, (1r,3r)-N-((6-fluoroisoquinolin-5-yl)methyl)-3-(3-(pentafluoro-λ^6-sulfaneyl)phenoxy)cyclobutan-1-amine, HCl], the IC50 came out at 0.0154 µM.

As to `CCOC(=O)c1cccc(O[C@H]2C[C@H](NCc3c(F)ccc4cnccc34)C2)c1` [Example 34, ethyl 3-((1r,3r)-3-(((6-fluoroisoquinolin-5-yl)methyl)amino)cyclobutoxy)benzoate, HCl], the half-inhibitory concentration (IC50) was 0.0836 µM.

As to `Fc1cccc(O[C@H]2C[C@H](NCc3c(F)ccc4cnccc34)C2)c1F` [Example 35, (1r,3r)-3-(2,3-difluorophenoxy)-N-((6-fluoroisoquinolin-5-yl)methyl)cyclobutan-1-amine], the IC50 amounted to 0.128 µM. For the molecule `Fc1ccc2cnccc2c1CN[C@H]1C[C@H](Oc2ccc(OC(F)(F)F)cc2)C1` [Example 36, (1r,3r)-N-((6-fluoroisoquinolin-5-yl)methyl)-3-(4-(trifluoromethoxy)phenoxy)cyclobutan-1-amine, HCl], the IC50 was found to be 0.0989 µM. Regarding `Fc1ccc2cnccc2c1CN[C@H]1C[C@H](Oc2cccc(OC(F)(F)F)c2)C1` [Example 37, (1r,3r)-N-((6-fluoroisoquinolin-5-yl)methyl)-3-(3-(trifluoromethoxy)phenoxy)cyclobutan-1-amine, HCl], the IC50 is 0.0813 µM. `Fc1ccc(O[C@H]2C[C@H](NCc3c(F)ccc4cnccc34)C2)cc1OC(F)(F)F` [Example 38, (1r,3r)-3-(4-fluoro-3-(trifluoromethoxy)phenoxy)-N-((6-fluoroisoquinolin-5-yl)methyl)cyclobutan-1-amine, HCl]: the IC50 turned out to be 0.0514 µM. As for `Fc1ccc2cnccc2c1CN[C@H]1C[C@H](Oc2ccc3c(c2)OC(F)(F)C(F)(F)O3)C1` [Example 39, (1r,3r)-N-((6-fluoroisoquinolin-5-yl)methyl)-3-((2,2,3,3-tetrafluoro-2,3-dihydrobenzo[b][1,4]dioxin-6-yl)oxy)cyclobutan-1-amine, HCl], the figure is 0.0108 µM. As to `FCC(F)c1cc(O[C@H]2C[C@H](NCc3c(F)ccc4cnccc34)C2)ccc1F` (some centres unmarked) [Example 40, (1r,3r)-3-(3-(1,2-difluoroethyl)-4-fluorophenoxy)-N-((6-fluoroisoquinolin-5-yl)methyl)cyclobutan-1-amine], the concentration for half-maximal inhibition (IC50) was 0.124 µM. As for `FCc1cc(O[C@H]2C[C@H](NCc3c(F)ccc4cnccc34)C2)ccc1F` [Example 41, (1r,3r)-3-(4-fluoro-3-(fluoromethyl)phenoxy)-N-((6-fluoroisoquinolin-5-yl)methyl)cyclobutan-1-amine, HCl], the figure is 0.09 µM. In the case of `Fc1ccc2cnccc2c1CN[C@H]1C[C@H](Oc2ccc(C3CC3(F)F)cc2)C1` (some centres unmarked) [Example 42, (1r,3r)-3-(4-(2,2-difluorocyclopropyl)phenoxy)-N-((6-fluoroisoquinolin-5-yl)methyl)cyclobutan-1-amine, HCO2H], the IC50 stood at 0.173 µM. For `CC(C)c1cc(O[C@H]2C[C@H](NCc3cccc4cnccc34)C2)ccc1F` [Example 43, (1r,3r)-3-(4-fluoro-3-isopropylphenoxy)-N-(isoquinolin-5-ylmethyl)cyclobutan-1-amine, HCl], the IC50 was 0.528 µM. Regarding `Fc1ccc2cnccc2c1CN[C@H]1C[C@H](Oc2cccc(C3(C(F)(F)F)CCO3)c2)C1` (some centres unmarked) [Example 44, (1r,3r)-N-((6-fluoroisoquinolin-5-yl)methyl)-3-(3-(2-(trifluoromethyl)oxetan-2-yl)phenoxy)cyclobutan-1-amine], the IC50 was determined as 0.0326 µM.

Source of the values: US11845730B2, “1,3-substituted cyclobutyl derivatives and uses thereof” (Novartis AG, priority 2021, dated 2023).
